Measured values taken from patent US20220204457A1, “ARGININE GINGIPAIN INHIBITORS” (Cortexyme, Inc., priority 2019, published 2022).

Key:
cathepsin H = molecular target: T1, cathepsin H (Homo sapiens, UniProt P09668); test: cathepsin screen; assay type: biochemical
T1 sequence (P09668 98-335): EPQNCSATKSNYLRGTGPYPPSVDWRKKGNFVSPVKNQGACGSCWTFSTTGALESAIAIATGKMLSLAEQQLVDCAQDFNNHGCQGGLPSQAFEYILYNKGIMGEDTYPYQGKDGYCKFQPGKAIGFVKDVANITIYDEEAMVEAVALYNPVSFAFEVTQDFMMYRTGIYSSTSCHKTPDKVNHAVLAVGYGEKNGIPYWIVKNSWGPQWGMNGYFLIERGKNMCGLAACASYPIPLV

cathepsin S = cathepsin S (Homo sapiens, UniProt P25774); test: cathepsin screen; assay type: biochemical
Sequence of cathepsin S (P25774 115-331): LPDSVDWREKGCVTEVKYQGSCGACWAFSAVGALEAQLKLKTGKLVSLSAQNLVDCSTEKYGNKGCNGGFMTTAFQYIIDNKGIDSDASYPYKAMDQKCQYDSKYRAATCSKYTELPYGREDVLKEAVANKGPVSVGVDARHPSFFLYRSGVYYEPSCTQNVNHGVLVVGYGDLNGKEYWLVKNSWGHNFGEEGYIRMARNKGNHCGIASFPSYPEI

cathepsin B = cathepsin B (Homo sapiens, UniProt P07858); test: cathepsin screen; assay type: biochemical
Method: The method can also be used to assay enzymes including Kgp, trypsin, and cathepsins such as cathepsin B. For Kgp, the substrate can be succinyl-Ala-Phe-Lys-AMC. For trypsin, the buffer can contain 10 mM Tris and 10 mM CaCl2 (pH 8.0), and the substrate can be Z-Gly-Gly-Arg-AMC. For cathepsin B, the buffer can contain 50 mM sodium phosphate, 1 mM EDTA, and 10 mM 2-mercaptoethanol (pH 6.25), and the substrate can be Z-Arg-Arg-AMC.

cathepsin K = molecular target: T2, cathepsin K (Homo sapiens, UniProt P43235); test: cathepsin screen; assay type: biochemical
T2 sequence (P43235 115-329): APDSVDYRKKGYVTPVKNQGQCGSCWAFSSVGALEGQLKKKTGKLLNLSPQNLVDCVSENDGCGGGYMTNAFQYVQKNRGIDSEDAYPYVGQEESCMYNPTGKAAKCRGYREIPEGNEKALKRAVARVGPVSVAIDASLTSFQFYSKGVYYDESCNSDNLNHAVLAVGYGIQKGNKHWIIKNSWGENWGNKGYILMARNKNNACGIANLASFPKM

cathepsin L = cathepsin L (Homo sapiens, UniProt P07711); test: cathepsin screen; assay type: biochemical
Sequence of cathepsin L (P07711 114-333): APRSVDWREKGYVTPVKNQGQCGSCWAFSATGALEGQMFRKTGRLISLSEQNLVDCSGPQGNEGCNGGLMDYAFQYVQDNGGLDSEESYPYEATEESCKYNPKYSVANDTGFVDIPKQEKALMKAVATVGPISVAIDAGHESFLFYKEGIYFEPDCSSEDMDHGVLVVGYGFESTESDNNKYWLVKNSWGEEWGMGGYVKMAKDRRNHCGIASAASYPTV

cathepsin V = cathepsin V (Homo sapiens, UniProt O60911); test: cathepsin screen; assay type: biochemical
Sequence of cathepsin V (O60911 114-334): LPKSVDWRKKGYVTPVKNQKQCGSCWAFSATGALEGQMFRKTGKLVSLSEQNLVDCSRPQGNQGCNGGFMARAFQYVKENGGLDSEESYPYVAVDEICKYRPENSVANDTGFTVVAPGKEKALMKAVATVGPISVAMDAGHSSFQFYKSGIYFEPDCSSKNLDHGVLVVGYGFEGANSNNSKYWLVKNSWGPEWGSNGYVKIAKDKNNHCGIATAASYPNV

cathepsin F = molecular target: T3, cathepsin F (Homo sapiens, UniProt Q9UBX1); test: cathepsin screen; assay type: biochemical
T3 sequence (Q9UBX1 271-484): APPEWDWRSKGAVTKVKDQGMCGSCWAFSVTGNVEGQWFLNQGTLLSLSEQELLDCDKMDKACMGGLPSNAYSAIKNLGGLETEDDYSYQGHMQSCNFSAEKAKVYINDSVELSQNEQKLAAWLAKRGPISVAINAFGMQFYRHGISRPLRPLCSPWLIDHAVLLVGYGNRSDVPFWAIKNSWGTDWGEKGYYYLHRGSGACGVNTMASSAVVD

[1] = oral administration of RTV 15 minutes prior to Kyt-36; from U.S. Pat. No. 9,758,473; cited from earlier work

IC50 (cathepsin H) [µM]	IC50 (cathepsin S) [µM]	IC50 (cathepsin B) [µM]	IC50 (cathepsin K) [µM]	IC50 (cathepsin L) [µM]	IC50 (cathepsin V) [µM]	IC50 (cathepsin F) [µM]	Compound	half-life [1]
> 10	> 10	> 10	> 10	> 10	> 10	> 10	COC(C)(C)C(=O)N[C@@H](CCCNC(=N)N)C(=O)COC(C(F)(F)F)C(F)(F)F [Compound 1, (S)-N-(6-guanidino-1-((1,1,1,3,3,3-hexafluoropropan-2-yl)oxy)-2-oxohexan-3-yl)-2-methoxy-2-methylpropanamide]	
							CN(NC(=O)CC[C@H](NC(=O)OCc1ccccc1)C(=O)N[C@@H](CCCCN)C(=O)C(=O)NCc1ccccc1)c1ccccc1 [Kyt-36]	increases the half-life
